Read-outs that look alike come from different tables or passages of the source.
How the values were obtained:
c-src = c-src (Homo sapiens, UniProt P12931); assay: c-src kinase inhibition; type: biochemical; conditions: read-out: c-src, range of activity, pIC50 values (converted)
[1] = molecular target: T1, ret kinase (intracellular portion of ret, amino acids 713-1072 of the short isoform) (Homo sapiens, UniProt P07949); assay: Ret kinase enzyme assay; type: biochemical
T1 sequence (P07949 713-1072 isoform P07949-2): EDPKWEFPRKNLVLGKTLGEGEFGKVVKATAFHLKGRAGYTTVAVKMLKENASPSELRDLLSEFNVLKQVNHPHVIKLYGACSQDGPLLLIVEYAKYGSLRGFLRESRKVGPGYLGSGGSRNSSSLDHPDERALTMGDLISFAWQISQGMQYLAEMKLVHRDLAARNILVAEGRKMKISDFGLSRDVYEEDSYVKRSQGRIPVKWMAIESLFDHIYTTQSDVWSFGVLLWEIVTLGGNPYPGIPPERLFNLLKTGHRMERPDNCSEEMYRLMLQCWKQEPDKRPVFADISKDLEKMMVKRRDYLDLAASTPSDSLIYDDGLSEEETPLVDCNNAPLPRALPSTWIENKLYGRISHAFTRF
Protocol: The ret kinase assay used the intracellular portion of ret (amino acids 713-1072 of the short isoform) produced in SF9 insect cells and purified on a nickel column. The assay was performed in a 45 μL volume with increasing concentrations of tyrosine kinase inhibitor (TKI) in triplicate in a 96-well plate format as follows: • 4.5 μL 500 mM Morpholinopropanesulfonic acid, pH 7.4 • 4.5 μL 100 μM adenosine triphosphate • 4.5 μL 250 mM MgCl2 • 1.0 μL γ-ATP^33 (1 microCi)(3000 Ci/mMol) • 2.04 (5 mg/ml) poly Glutamic acid-Tyrosine (Sigma (P-0275)) • 234H20 • 1.04 recombinant ret (100 ng) • 4.5 μL 10× Tyrosine kinase inhibitor
The components were incubated in triplicate for 30 minutes at room temperature within a 96-well plate in triplicate. The reaction was stopped by adding 45 μL 0.5% H3PO4 to each well. 75 μL of the reaction mixture was spotted onto phosphocellulose paper (Millipore, cat #MAPHN0B50) and was washed 3 times with 2004 0.5% H3PO4. Each phosphocellulase filter was transferred into a separate scintillation vial, 1 ml cytoscint fluid was added, and the sample counted on a Packard 1900TR liquid scintillation analyzer for 1 minute.
Concentrations of Example 1 tested in the ret enzyme kinase assay to determine the IC50 were 0, 0.5, 1, 5, 10, 50, 100, and 250 nM.

VEFGR2 = VEFGR2 (Homo sapiens, UniProt P35968); assay: VEFGR2 kinase inhibition; type: biochemical; conditions: read-out: VEFGR2, range of activity, pIC50 values (converted)
[2] = test system: TT cells, a medullary thyroid cancer cell line with constitutively activated ret; assay: MTT assay, TT cell proliferation; type: cell-based; conditions: Homo sapiens, 168 hours with compound
Protocol: The potency of the compound of the invention was tested for its ability to inhibit cell proliferation and cell viability.

[3] = ret kinase enzyme assay, read-out: Ret, range of activity, pIC50 values (converted)

Chain of c-src (P12931 whole entry, species assumed, the tested form may be a part, canonical isoform): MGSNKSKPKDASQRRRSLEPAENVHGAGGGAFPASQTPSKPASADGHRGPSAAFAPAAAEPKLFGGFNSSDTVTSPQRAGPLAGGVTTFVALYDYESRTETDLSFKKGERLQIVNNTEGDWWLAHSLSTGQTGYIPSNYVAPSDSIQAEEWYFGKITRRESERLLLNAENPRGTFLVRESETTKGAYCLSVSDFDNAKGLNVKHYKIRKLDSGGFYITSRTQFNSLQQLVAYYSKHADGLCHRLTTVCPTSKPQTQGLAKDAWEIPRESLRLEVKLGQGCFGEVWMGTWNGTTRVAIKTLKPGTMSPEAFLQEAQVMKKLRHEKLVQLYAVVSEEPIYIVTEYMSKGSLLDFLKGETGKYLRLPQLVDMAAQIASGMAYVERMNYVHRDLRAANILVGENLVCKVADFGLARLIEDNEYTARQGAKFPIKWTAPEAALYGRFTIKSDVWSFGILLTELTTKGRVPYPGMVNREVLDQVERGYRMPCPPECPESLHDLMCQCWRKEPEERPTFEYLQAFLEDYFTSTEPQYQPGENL
Chain of VEFGR2 (P35968 20-1356): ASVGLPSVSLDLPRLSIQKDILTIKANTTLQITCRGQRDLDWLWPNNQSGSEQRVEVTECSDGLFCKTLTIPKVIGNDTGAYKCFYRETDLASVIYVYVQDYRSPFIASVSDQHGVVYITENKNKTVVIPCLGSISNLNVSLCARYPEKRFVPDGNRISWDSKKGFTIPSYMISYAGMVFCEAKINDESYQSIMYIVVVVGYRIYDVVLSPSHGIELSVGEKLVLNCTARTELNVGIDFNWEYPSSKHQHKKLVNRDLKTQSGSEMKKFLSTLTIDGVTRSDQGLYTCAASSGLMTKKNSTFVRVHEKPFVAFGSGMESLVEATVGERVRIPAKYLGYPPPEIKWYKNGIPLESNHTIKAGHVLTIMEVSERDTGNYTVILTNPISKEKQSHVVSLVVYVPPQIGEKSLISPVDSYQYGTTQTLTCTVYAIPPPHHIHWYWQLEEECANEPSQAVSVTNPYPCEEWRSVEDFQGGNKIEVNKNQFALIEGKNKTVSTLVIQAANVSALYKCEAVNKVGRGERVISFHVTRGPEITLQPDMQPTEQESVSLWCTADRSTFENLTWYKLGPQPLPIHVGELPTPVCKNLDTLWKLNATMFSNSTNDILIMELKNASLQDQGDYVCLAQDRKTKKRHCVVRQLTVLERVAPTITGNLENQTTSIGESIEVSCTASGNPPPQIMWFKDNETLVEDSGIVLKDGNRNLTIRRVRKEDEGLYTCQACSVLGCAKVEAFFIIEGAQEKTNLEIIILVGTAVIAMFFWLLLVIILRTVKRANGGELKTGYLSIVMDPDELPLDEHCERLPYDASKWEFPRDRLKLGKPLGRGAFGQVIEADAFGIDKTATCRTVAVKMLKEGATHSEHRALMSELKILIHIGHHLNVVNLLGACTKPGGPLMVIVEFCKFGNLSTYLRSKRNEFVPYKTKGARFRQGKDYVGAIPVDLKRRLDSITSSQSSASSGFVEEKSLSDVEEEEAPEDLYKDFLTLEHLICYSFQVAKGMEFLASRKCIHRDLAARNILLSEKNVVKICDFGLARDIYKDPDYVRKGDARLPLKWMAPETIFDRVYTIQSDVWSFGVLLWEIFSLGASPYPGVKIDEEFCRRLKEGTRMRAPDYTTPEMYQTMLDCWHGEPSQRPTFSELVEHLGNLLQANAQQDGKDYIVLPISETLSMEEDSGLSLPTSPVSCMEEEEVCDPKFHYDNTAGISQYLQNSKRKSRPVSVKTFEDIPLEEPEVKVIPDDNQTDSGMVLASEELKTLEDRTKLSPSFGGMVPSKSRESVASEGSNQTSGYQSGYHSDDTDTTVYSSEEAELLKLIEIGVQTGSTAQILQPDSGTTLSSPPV

| Structure (SMILES) | IC50 (c-src) | IC50 [1, 3] | IC50 (VEFGR2) | IC50 [2] | IC50 [1] |
| --- | --- | --- | --- | --- | --- |
| Oc1cccc(Nc2ccnc3cc(-c4ccccn4)ccc23)c1 [Example 1, 3-{[7-(2-pyridinyl)-4-quinolinyl]amino}phenol] | < 10 nM | < 10 nM | – | – | – |
| Oc1cc(Nc2ccnc3cc(-c4cc5ccccc5o4)ccc23)ccc1Br [Example 3, 5-{[7-(1-benzofuran-2-yl)-4-quinolinyl]amino}-2-bromophenol] | 10 to 100 nM | 10 to 100 nM | < 10 nM | – | – |
| Oc1cc(Nc2ccnc3cc(-c4cccc(CNCCN5CCOCC5)c4)ccc23)c(F)cc1Cl [Example 4, 2-chloro-4-fluoro-5-({7-[3-({[2-(4-morpholinyl)ethyl]amino}methyl)phenyl]-4-quinolinyl}amino)phenol] | < 10 nM | – | < 10 nM | – | 10 to 100 nM |
| CS(=O)(=O)c1ccc2nccc(Nc3cc(O)c(F)cc3Cl)c2c1 [Example 6, 4-chloro-2-fluoro-5-{[6-(methysulfonuyl)-4-quinolinyl]amino}phenol] | – | < 10 nM | – | < 1000 nM | – |

Second part, led by results:

| IC50 (c-src) | IC50 [1, 3] | IC50 (VEFGR2) | IC50 [2] | Structure (SMILES) | IC50 [1] |
| --- | --- | --- | --- | --- | --- |
| < 10 nM | 10 to 100 nM | – | – | OCc1nc(-c2ccc3c(Nc4cc(O)c(F)cc4Cl)ccnc3c2)cs1 [Example 7, 4-chloro-2-fluoro-5-({7-[2-(hydroxymethyl)-1,3-thiazol-4-yl]-4-quinolinyl}amino)phenol] | – |
| – | 10 to 100 nM | 100 to 1000 nM | – | Cc1ccc(O)cc1Nc1ccnc2ccc(C(=O)NC(C)C)cc12 [Example 10] | – |

Reference: patent publication US20110053934A1, “COMPOUNDS AND METHODS OF TREATMENT” (GLAXOSMITHKLINE LLC, priority 2007, published 2011)
